Assay results as given in paper PMC12307812 (Nature Communications, 2025).
Like-named read-outs stand apart in the source and are kept apart here.

What was measured:
[1] = system: SARS-CoV-2 isolate hCoV-19/Germany/FI1103201/2020; assay: microbe, parasite or virus in culture; type: cell-based
[2] = system: pseudovirus bearing S protein of HCoV-NL63; assay: organism not typed; type: cell-based
[3] = system: vesicular stomatitis virus (VSV); type: cell-based; conditions: for mean log10(PFU/ml): VSV
[4] = molecular target: T1, Recombinant Human TMPRSS2 (Homo sapiens, UniProt O15393); assay: TMPRSS2 biochemical assay with pre-incubation of inhibitor and enzyme; conditions: for inhibition at 2.788 pM: concentration 0.00278767 nM; for inhibition at 8.363 pM: concentration 0.00836301 nM; for inhibition at 25.09 pM: concentration 0.025089 nM; for inhibition at 75.27 pM: concentration 0.0752671 nM; for inhibition at 0.000225801 µM: concentration 0.225801 nM; for inhibition at 0.000677404 µM: concentration 0.677404 nM; for inhibition at 0.00203221 µM: concentration 2.03221 nM; for inhibition at 0.00609663 µM: concentration 6.09663 nM; for inhibition at 0.0182899 µM: concentration 18.2899 nM; for inhibition at 0.0548697 µM: concentration 54.8697 nM; for inhibition at 0.164609 µM: concentration 164.609 nM; for inhibition at 0.493827 µM: concentration 493.827 nM; for inhibition at 1.48148 µM: concentration 1481.48 nM; for inhibition at 4.44444 µM: concentration 4444.44 nM; for inhibition at 13.3333 µM: concentration 13333.3 nM; for inhibition at 40 µM: concentration 40000 nM
T1 construct: human TMPRSS2 residues 106492, N-terminal 6x His-tag; 6x His-tag (N); purchased Cusabio CSB-YP023924HU; host or cells: yeast
T1 sequence (O15393 106-492 limits assumed): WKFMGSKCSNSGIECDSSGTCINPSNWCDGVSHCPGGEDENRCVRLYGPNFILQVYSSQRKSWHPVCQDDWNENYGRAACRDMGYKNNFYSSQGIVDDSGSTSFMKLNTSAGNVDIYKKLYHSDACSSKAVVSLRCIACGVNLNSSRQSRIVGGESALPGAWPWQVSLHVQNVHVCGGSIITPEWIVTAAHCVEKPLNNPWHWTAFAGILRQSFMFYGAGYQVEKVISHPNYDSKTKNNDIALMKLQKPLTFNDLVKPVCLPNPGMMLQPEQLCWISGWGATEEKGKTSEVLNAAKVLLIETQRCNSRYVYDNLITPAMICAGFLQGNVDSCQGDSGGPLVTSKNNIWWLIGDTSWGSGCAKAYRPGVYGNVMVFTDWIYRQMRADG
Description: To that was dispensed TMPRSS2 (5 µl, 0.018 mg/ml) in assay buffer (50 mM Tris pH 8, 150 mM NaCl, 0.01% Tween20) using a BioRAPTR (Beckman Coulter) to give a total reaction volume of 5 µl. […] The final assay conditions are 10 µM peptide, 0.018 mg/ml TMPRSS2 in assay buffer (50 mM Tris-HCl, pH 8, 150 mM NaCl, 0.01% Tween20).
After incubation at room temperature for 1 h, fluorescence was measured. […] Raw plate reads for each titration point were normalized relative to a positive control containing no enzyme (0% activity, full inhibition) and a negative control containing DMSO-only wells (100% activity, basal activity). Data normalization was performed using GraphPad Prism (GraphPad Software, San Diego, CA).
We employed the curve fitting algorithm available in the SciPy package (version 1.10.1)[61] to derive the Hill slope and the IC50 value, along with their corresponding error estimates.
To model the relationship between the pre-incubation time and the IC50, we use the following equation inspired by the Morse potential:3 ft,a,D,te=D⋅1−exp−a⋅t−te^2 where t is the time, a is the width of the well, D is the IC50 at infinite time (depth of the well) and te is the time at which the IC50 reaches its minimum. Again, we made use of SciPy’s curve fitting method to obtain parameters a, D and te, with their respective error estimates.

[5] = system: pseudoviruses carrying diverse coronavirus S proteins; type: cell-based
[6] = Calu-3, read-out: mean inhibition

SMILES: CC(C)(C)NC(=O)N1CCN(C(=O)N2C(=O)C(CCCNC(=N)N)C2C(=O)O)CC1 (stereo not shown) [BMS-262084]
- IC50 ([1]; Severe acute respiratory syndrome coronavirus 2, Calu-3, 24 h, read-out: IC50, relative infectivity of SARS-CoV-2): 510 nM
- IC50 ([1]; Severe acute respiratory syndrome coronavirus 2, Calu-3 cells, Figure S5, read-out: IC50 estimate, SARS-CoV-2 entry inhibition): 509 ± 146 nM
- IC50 ([2]; Calu-3, read-out: IC50 estimate, pseudovirus cell entry NL63-S): 432 ± 223 nM
- inhibition at 0.00025 µM [2, 6]: -0.475%
- inhibition at 0.0025 µM [2, 6]: 8.77%
- inhibition at 0.025 µM [2, 6]: 16.9%
- inhibition at 0.25 µM [2, 6]: 57.8%
- inhibition at 2.5 µM [2, 6]: 66.8%
- inhibition at 25 µM [2, 6]: 73.5%
- effect on VSV infection [3]: not affected
- mean log10(PFU/ml) ([3]; concentration 5 nM): 9.0266 log10(PFU/ml)
- mean log10(PFU/ml) ([3]; concentration 50 nM): 9.0323 log10(PFU/ml)
- mean log10(PFU/ml) ([3]; concentration 500 nM): 9.005 log10(PFU/ml)
- mean log10(PFU/ml) ([3]; concentration 5000 nM): 9 log10(PFU/ml)
- mean log10(PFU/ml) ([3]; concentration 50000 nM): 9.006 log10(PFU/ml)
- fold IC50 relative to camostat and nafamostat ([4]; after 48 h of pre-incubation): 5 fold
- inhibition at 2.788 pM ([4]; pre-incubation 0): -15.1%
- inhibition at 8.363 pM ([4]; pre-incubation 0): -14.4%
- inhibition at 25.09 pM ([4]; pre-incubation 0): -2.55%
- inhibition at 75.27 pM ([4]; pre-incubation 0): 9.07%
- inhibition at 0.000225801 µM ([4]; pre-incubation 0): 39.6%
- inhibition at 0.000677404 µM ([4]; pre-incubation 0): 61.8%
- inhibition at 0.00203221 µM ([4]; pre-incubation 0): 83.9%
- inhibition at 0.00609663 µM ([4]; pre-incubation 0): 90.2%
- inhibition at 0.0182899 µM ([4]; pre-incubation 0): 93.8%
- inhibition at 0.0548697 µM ([4]; pre-incubation 0): 94.7%
- inhibition at 0.164609 µM ([4]; pre-incubation 0): 96.7%
- inhibition at 0.493827 µM ([4]; pre-incubation 0): 97.7%
- inhibition at 1.48148 µM ([4]; pre-incubation 0): 98.2%
- inhibition at 4.44444 µM ([4]; pre-incubation 0): 98%
- inhibition at 13.3333 µM ([4]; pre-incubation 0): 101%
- inhibition at 40 µM ([4]; pre-incubation 0): 100%
- inhibition at 2.788 pM ([4]; pre-incubation 1): 9.6%
- inhibition at 8.363 pM ([4]; pre-incubation 1): 9.83%
- inhibition at 25.09 pM ([4]; pre-incubation 1): 32.2%
- inhibition at 75.27 pM ([4]; pre-incubation 1): 60.8%
- inhibition at 0.000225801 µM ([4]; pre-incubation 1): 90%
- inhibition at 0.000677404 µM ([4]; pre-incubation 1): 96.9%
- inhibition at 0.00203221 µM ([4]; pre-incubation 1): 97.1%
- inhibition at 0.00609663 µM ([4]; pre-incubation 1): 97.8%
- inhibition at 0.0182899 µM ([4]; pre-incubation 1): 97.1%
- inhibition at 0.0548697 µM ([4]; pre-incubation 1): 97.8%
- inhibition at 0.164609 µM ([4]; pre-incubation 1): 97.6%
- inhibition at 0.493827 µM ([4]; pre-incubation 1): 98.2%
- inhibition at 1.48148 µM ([4]; pre-incubation 1): 99.5%
- inhibition at 4.44444 µM ([4]; pre-incubation 1): 100%
- inhibition at 13.3333 µM ([4]; pre-incubation 1): 101%
- inhibition at 40 µM ([4]; pre-incubation 1): 102%
- inhibition at 2.788 pM ([4]; pre-incubation 4): 5.94%
- inhibition at 8.363 pM ([4]; pre-incubation 4): 11.2%
- inhibition at 25.09 pM ([4]; pre-incubation 4): 52.1%
- inhibition at 75.27 pM ([4]; pre-incubation 4): 87.4%
- inhibition at 0.000225801 µM ([4]; pre-incubation 4): 99.5%
- inhibition at 0.000677404 µM ([4]; pre-incubation 4): 99.4%
- inhibition at 0.00203221 µM ([4]; pre-incubation 4): 99.5%
- inhibition at 0.00609663 µM ([4]; pre-incubation 4): 99.5%
- inhibition at 0.0182899 µM ([4]; pre-incubation 4): 99.8%
- inhibition at 0.0548697 µM ([4]; pre-incubation 4): 99.8%
- inhibition at 0.164609 µM ([4]; pre-incubation 4): 100%
- inhibition at 0.493827 µM ([4]; pre-incubation 4): 100%
- inhibition at 1.48148 µM ([4]; pre-incubation 4): 101%
- inhibition at 4.44444 µM ([4]; pre-incubation 4): 101%
- inhibition at 13.3333 µM ([4]; pre-incubation 4): 103%
- inhibition at 40 µM ([4]; pre-incubation 4): 102%
- inhibition at 2.788 pM ([4]; pre-incubation 8): 25.7%
- inhibition at 8.363 pM ([4]; pre-incubation 8): 29.7%
- inhibition at 25.09 pM ([4]; pre-incubation 8): 84.9%
- inhibition at 75.27 pM ([4]; pre-incubation 8): 109%
- inhibition at 0.000225801 µM ([4]; pre-incubation 8): 113%
- inhibition at 0.000677404 µM ([4]; pre-incubation 8): 114%
- inhibition at 0.00203221 µM ([4]; pre-incubation 8): 114%
- inhibition at 0.00609663 µM ([4]; pre-incubation 8): 116%
- inhibition at 0.0182899 µM ([4]; pre-incubation 8): 115%
- inhibition at 0.0548697 µM ([4]; pre-incubation 8): 116%
- inhibition at 0.164609 µM ([4]; pre-incubation 8): 116%
- inhibition at 0.493827 µM ([4]; pre-incubation 8): 116%
- inhibition at 1.48148 µM ([4]; pre-incubation 8): 118%
- inhibition at 4.44444 µM ([4]; pre-incubation 8): 119%
- inhibition at 13.3333 µM ([4]; pre-incubation 8): 118%
- inhibition at 40 µM ([4]; pre-incubation 8): 118%
- inhibition at 2.788 pM ([4]; pre-incubation 18): 20.8%
- inhibition at 8.363 pM ([4]; pre-incubation 18): 24.6%
- inhibition at 25.09 pM ([4]; pre-incubation 18): 83.1%
- inhibition at 75.27 pM ([4]; pre-incubation 18): 92.8%
- inhibition at 0.000225801 µM ([4]; pre-incubation 18): 95.2%
- inhibition at 0.000677404 µM ([4]; pre-incubation 18): 95.6%
- inhibition at 0.00203221 µM ([4]; pre-incubation 18): 98.1%
- inhibition at 0.00609663 µM ([4]; pre-incubation 18): 98.2%
- inhibition at 0.0182899 µM ([4]; pre-incubation 18): 99.5%
- inhibition at 0.0548697 µM ([4]; pre-incubation 18): 101%
- inhibition at 0.164609 µM ([4]; pre-incubation 18): 102%
- inhibition at 0.493827 µM ([4]; pre-incubation 18): 103%
- inhibition at 1.48148 µM ([4]; pre-incubation 18): 102%
- inhibition at 4.44444 µM ([4]; pre-incubation 18): 103%
- inhibition at 13.3333 µM ([4]; pre-incubation 18): 104%
- inhibition at 40 µM ([4]; pre-incubation 18): 105%
- inhibition at 2.788 pM ([4]; pre-incubation 24): 45.1%
- inhibition at 8.363 pM ([4]; pre-incubation 24): 50.8%
- inhibition at 25.09 pM ([4]; pre-incubation 24): 105%
- inhibition at 75.27 pM ([4]; pre-incubation 24): 110%
- inhibition at 0.000225801 µM ([4]; pre-incubation 24): 114%
- inhibition at 0.000677404 µM ([4]; pre-incubation 24): 114%
- inhibition at 0.00203221 µM ([4]; pre-incubation 24): 114%
- inhibition at 0.00609663 µM ([4]; pre-incubation 24): 115%
- inhibition at 0.0182899 µM ([4]; pre-incubation 24): 116%
- inhibition at 0.0548697 µM ([4]; pre-incubation 24): 115%
- inhibition at 0.164609 µM ([4]; pre-incubation 24): 116%
- inhibition at 0.493827 µM ([4]; pre-incubation 24): 116%
- inhibition at 1.48148 µM ([4]; pre-incubation 24): 117%
- inhibition at 4.44444 µM ([4]; pre-incubation 24): 117%
- inhibition at 13.3333 µM ([4]; pre-incubation 24): 117%
- inhibition at 40 µM ([4]; pre-incubation 24): 117%
- inhibition at 2.788 pM ([4]; pre-incubation 48): 32.3%
- inhibition at 8.363 pM ([4]; pre-incubation 48): 30.9%
- inhibition at 25.09 pM ([4]; pre-incubation 48): 88.5%
- inhibition at 75.27 pM ([4]; pre-incubation 48): 93.1%
- inhibition at 0.000225801 µM ([4]; pre-incubation 48): 95.9%
- inhibition at 0.000677404 µM ([4]; pre-incubation 48): 96.1%
- inhibition at 0.00203221 µM ([4]; pre-incubation 48): 94.8%
- inhibition at 0.00609663 µM ([4]; pre-incubation 48): 94.5%
- inhibition at 0.0182899 µM ([4]; pre-incubation 48): 96.1%
- inhibition at 0.0548697 µM ([4]; pre-incubation 48): 96.3%
- inhibition at 0.164609 µM ([4]; pre-incubation 48): 97.7%
- inhibition at 0.493827 µM ([4]; pre-incubation 48): 99.7%
- inhibition at 1.48148 µM ([4]; pre-incubation 48): 101%
- inhibition at 4.44444 µM ([4]; pre-incubation 48): 105%
- inhibition at 13.3333 µM ([4]; pre-incubation 48): 109%
- inhibition at 40 µM ([4]; pre-incubation 48): 112%
- fold more potent than camostat (lower IC50) [5]: ~2 fold
- fold more potent than camostat (lower IC50) ([5]; SARS-CoV-2 lineages B.1, B.1.617.2, EG.5.1, BA.2.86, Calu-3 cells): 3–8 fold
